For five compounds, melting point and IC50 results are on record in PMC7919047, “Trichilianones A-D, Novel Cyclopropane-Type Limonoids from Trichilia adolfi” (Molecules, 2021).

The structures appear in SMILES notation. ≈ marks a conversion by molar mass, not a printed value. Like-named read-outs stand apart in the source and are kept apart here.

Series [1] can be described thus: Cytotoxicity in Raw 264.7 murine macrophage cell cultures (resazurin, 72 h). Type of series: cell-based. Particulars: mouse, Raw 264.7 murine macrophages, 72 h at 37 °C, 6.2–200 μg/mL, triplicate. The method, then: The Raw 264.7 murine macrophage cell line was purchased from the American-Type Culture Collection (ATCC-TIB71). The cells were maintained in DMEM-HG medium supplemented with 10% fetal bovine serum, 100 U/mL of penicillin and 100 μg/mL of streptomycin, and sodium bicarbonate (2.2 g/L) in humidified atmosphere at 37 °C with 5% CO2. Samples were prepared as described above and added (in 100 μL DMSO) at different concentrations (6.2–200 μg/mL). Medium blank, control drugs and cell growth controls were included to evaluate cell viability. The plates were incubated for 72 h at 37 °C with 5% CO2. After incubation for the indicated time, the cells were washed, after which 10 μL of Resazurin reagent (2.0 mM) was added. They were further incubated at 37 °C for 3 h in a humidified incubator. The IC50 values were assessed using a fluorometric reader (540 nm excitation, 590 nm emission) and Gen5 software. All assays were performed in triplicate.

Series [2] relates to L. braziliensis promastigotes. Briefly: In vitro leishmanicidal activity against promastigotes (optical density, 72 h). Type of series: cell-based. Particulars: Leishmania braziliensis, read-out: Leishmanicidal activity L.b, IC50. The protocol:
(§1) Leishmanicidal activity was assayed according to Williams, with some modification. Promastigotes of Leishmania: L. amazonensis, Clone 1, NHOM-BR-76-LTB-012 (Lma, donated by the Paul Sabatier Université, France) and L. braziliensis M2904 C192 RJA (M2904, donated by Dr. Jorge Arévalo from Universidad Peruana Cayetano Heredia, Peru). The strains were cultured in Schneider’s insect medium (pH 6.2), supplemented with 10% FBS and incubated in 96-microwell plates at 26 °C. Briefly, promastigotes in logarithmic phase of growth, at concentration of 106 parasites/mL, were exposed to samples dissolved in DMSO (1%) at different concentrations (3.1–100 μg/mL). Miltefosine (3.1–100 μg/mL, IDPS, France) was used as control drug. The microwell plates were incubated for 72 h at 26 °C, the optical density of each well was measured and the IC50 values calculated. All assays were performed in triplicate.

Series [3] has as its system Leishmania amazonensis promastigotes. The description is as above. Type of series: cell-based. To be noted: read-out: Leishmanicidal activity L.a., IC50. The method, then: as §1

Consider `COC(=O)CC1C(C)(C)OC(=O)CC2OC3(C)C45C(=O)CC(c6ccoc6)C4(C)C(OC(C)=O)C(OC(=O)C(C)C)C35C21C` (stereo not shown) [Compound 3, Trichilianone C], for which the melting point amounted to 151 °C. Further, the IC50 at 72 h in series [1] (Raw 264.7 macrophage cells) is 70 ± 27 µg/mL (≈ 114 µM). Further, the IC50 in series [2] (72 h) was more than 100 µg/mL. Further, the IC50 in series [3] (72 h) is more than 100 µg/mL.
In series [1] (Raw 264.7 macrophage cells), `CCCCCCCCCCCCCCCCOP(=O)([O-])OCC[N+](C)(C)C` [Miltefosine, reference compound] yielded an IC50 at 72 h of 21 ± 2 µg/mL (≈ 51.5 µM). Moreover, the IC50 is 4.1 ± 0.5 µg/mL (≈ 10.1 µM) in series [2] (L. braziliensis M2904 C192 RJA promastigotes, 72 h at 26 °C, 3.1–100 μg/mL, triplicate) and 5 ± 0.2 µg/mL (≈ 12.3 µM) in series [3] (L. amazonensis Clone 1 NHOM-BR-76-LTB-012 promastigotes, 72 h at 26 °C, 3.1–100 μg/mL, triplicate).
Regarding `COC(=O)CC1C(C)(C)OC(=O)C=C2OC3(C)C45C(=O)CC(c6ccoc6)C4(C)C(OC(C)=O)C(O)C35C21C` (stereo not shown) [Compound 1, Trichilianone A], the melting point was found to be 181 °C. The same compound yielded an IC50 at 72 h in series [1] of 64 ± 23 µg/mL (≈ 118 µM). The IC50 in series [2] (72 h) is more than 100 µg/mL. For the same compound, the IC50 in series [3] (72 h) was more than 100 µg/mL.
`COC(=O)CC1C(C)(C)OC(=O)CC2OC3(C)C45C(=O)CC(c6ccoc6)C4(C)C(OC(C)=O)C(O)C35C21C` (stereo not shown) [Compound 2, Trichilianone B]: the melting point turned out to be 145 °C. The IC50 at 72 h in series [1] (Raw 264.7 macrophage cells) worked out at 75 ± 18 µg/mL (≈ 138 µM). In addition, the IC50 in series [2] (72 h) was more than 100 µg/mL. The IC50 in series [3] (72 h) was more than 100 µg/mL.
Compound `COC(=O)CC1C(C)(C)OC(=O)C=C2OC3(C)C45C(=O)CC(C6=CCOC6=O)C4(C)C(OC(C)=O)C(O)C35C21C` (stereo not shown) [Compound 4, Trichilianone D] yielded a melting point of 175 °C. The compound also came in with an IC50 at 72 h in series [1] of 76 ± 23 µg/mL (≈ 136 µM). Also, the IC50 in series [2] (72 h) is more than 100 µg/mL. Also, the IC50 in series [3] (72 h) is more than 100 µg/mL.
